Source: US20240353338A1 (priority 2023, published 2024)

System: early Delta variant of SARS-CoV-2
Format: cell-based

Question: Which “antiviral effectiveness (virus growth by reverse transcriptase quantitative PCR)” value does the source give for `Nc1nnc(Sc2ncc([N+](=O)[O-])s2)s1` [Halicin] here?
Answer: inhibition of virus growth
